Measured values: article PMC7615677 (Science translational medicine, 2023)

Tests used:
[1] = system: L. donovani axenic amastigotes; assay: Drug sensitivity assay, axenic amastigotes; assay type: cell-based; settings: Leishmania donovani
Experimental: The clonal L. donovani cell line LdBOB (derived from MHOM/SD/62/1S-CL2D) was grown as promastigotes at 28°C and as axenic amastigotes at 37°C, as described previously ([25]).
To examine the effects of test compounds on growth in 96-well plates, promastigote or axenic amastigote cultures seeded at 5 × 10^4 parasites mL^–1 were incubated in the presence of 2-fold serial dilutions of test compounds for 72 h. Following incubation, 50 μM resazurin was added to each well and fluorescence (excitation of 528 nm and emission of 590 nm) measured after a further 3 h incubation.

[2] = In vitro cytotoxicity assays, all cell lines tested; assay type: cell-based; settings: mouse, human, African green monkey
[3] = Exploratory 14-day rat toxicology study
Text: Parameters monitored included morbidity/mortality, clinical signs, body weight, food consumption, hematology and serum clinical chemistry. Main study animals were killed on the day after the last dose and necropsied. Selected organs were weighed. Organ/tissue samples were fixed and preserved at necropsy. Following the macroscopic examination, selected organs/tissues were examined histopathologically and compared to the control group. Satellite animals were sampled for toxicokinetics on days 1 and 14, at various time-points after treatment.

[4] = Binding to hepatocytes, calculated from microsomal binding; assay type: in vitro ADME; settings: human, 1 x 10^6 cells/mL, read-out: hepatocyte fraction unbound
Experimental: Dialysis was conducted for 6 h and parallel non-dialyzed samples were included to confirm the absence of compound degradation. Binding to hepatocytes (at a cell density of 1 x 10^6 cells/mL) was calculated from the measured microsomal binding (at 1 mg/mL) as described previously ([26]). The fraction unbound (fu) was determined from the ratio of the dialysate to the donor concentration, assuming that the system was at steady state at the end of the dialysis period. For plasma, the data were corrected for the dilution factor to give a binding value for neat plasma according to previously published methods ([27]).

[5] = system: remaining CYP isoforms other than CYP1A2 and CYP3A4/5 (CYP2B6, CYP2C8, CYP2C9, CYP2C19, CYP2D6); assay: Cytochrome P450 inhibition, human liver microsomes; assay type: in vitro ADME; settings: remaining isoforms (other than CYP1A2 and CYP3A4/5)
Experimental: Direct CYP inhibition studies were conducted using conditions described previously ([43]) following incubation of isoform-specific substrates with human liver microsomes. The formation of known metabolites mediated by a specific CYP isoform was monitored. CYP isoform-specific pathways (and positive control inhibitors) included CYP1A2: phenacetin O-deethylation (furafylline), CYP2B6: bupropion hydroxylation (PPP), CYP2C8: amodiaquine deethylation (quercetin) CYP2C9: tolbutamide methylhydroxylation (sulfaphenazole), CYP2C19: (S)-mephenytoin 4’-hydroxylation (ticlopidine), CYP2D6: dextromethorphan O-demethylation (quinidine), and CYP3A: midazolam 1’-hydroxylation and testosterone 6β-hydroxylation (ketoconazole). […] The organic solvent content was maintained at less than 1% (v/v). NADPH was added to initiate the reaction which was then quenched by the addition of acetonitrile containing internal standard at specified times. Concentrations of the isoform-specific metabolites were quantified by LC-MS (Waters Xevo TQD triple quadrupole MS coupled to a Waters Acquity UPLC system) relative to calibration standards prepared in pre-quenched microsomal matrix.

[6] = system: CHO-K1 cells; assay: In vitro micronucleus assay; assay type: cell-based; settings: absence or presence of rat liver S9
Experimental: The treatment time was 24 h without metabolic activation (rat liver S9) and 3 h with activation. The positive controls were bleomycin sulfate and cyclophosphamide, respectively.

[7] = system: L. donovani MHOM/ET/67/L82 (synonym HU3); assay: Acute mouse infection model (VL); assay type: in vivo, BALB/c mice; settings: 12.5 mg/kg bid or higher, 5-day dosing
Experimental: (§1) Female 8−10-week-old BALB/c mice were infected with 2 x 10^7 L. donovani MHOM/ET/67/L82 (synonym HU3) or L. infantum MHOM/MA67/ITMAP263 amastigotes on day 0 and dispatched in groups of five individuals. […] Five days following end of treatment, all mice were sacrificed, and parasite burden was determined from smears of liver sections. Efficacy was expressed as the mean percentage load reduction compared to untreated (vehicle-only) control animals. Reference drugs miltefosine and/or AmBisome were used as positive controls and comparators.

[8] = system: L. infantum MHOM/MA67/ITMAP263; assay: Acute mouse infection model (VL); assay type: in vivo, BALB/c mice; settings: for decrease in the liver parasite burden compared to control animals: 5 consecutive days
Experimental: as §1

[9] = system: HepG2 cells; assay: MitoXpress oxygen consumption assay; assay type: cell-based
Experimental: Briefly, HepG2 cells were seeded in 96-well plates in 100 μL of complete media and incubated overnight in an incubator set to maintain approximately (37°C and 5% CO2). […] Oligomycin (5 μM), FCCP (1 μM), or antimycin A or antimycin A/Rotenone (1 μM) were added to additional wells as positive controls. Prewarmed (37°C) 100% mineral oil (100 μL) was immediately added to all wells. The assay plates were transferred to a Perkin Elmer Wallac VICTOR3 System reader for time-resolved fluorescence measurements. Fluorescence (excitation 340 nm/emission 642 nm) was measured every two minutes for approximately 1-2 hrs (or until signal plateau/saturation is reached).
The dual-read time-resolved (T1 = 30 μs and T2 = 70 μs) fluorescence intensity readings (R1 and R2) from the Perkin Elmer Wallac VICTOR3 system (Perkin Elmer) were converted to lifetime fluorescence values as per guidelines detailed in the Agilent MitoXpress Xtra Oxygen Consumption Assay Manual. Calculation of the slope translates to oxygen consumption rate (OCR). Oxygen consumption rate was multiplied by 60 to determine the slope/hour for each assay well.

Cc1[nH]c2nc(N)nc(C)c2c1-c1ccc(C#N)c2c1OCO2 [DNDI-6174]
EC50 [1]: 0.075 ± 0.002 µM | CC50 [2]: > 37 µM | tolerability, in words ([3]; 200 mg/kg): early sacrifice of one female on day 5 | body weight decrease ([3]; 200 mg/kg, males): > 10% | tolerability, in words ([3]; 30 and 80 mg/kg oral): no mortality or morbidity | fraction unbound [4]: 0.63 | IC50 [5]: > 15 µM | genotoxicity, in words [6]: not genotoxic | reduction in liver parasite burden [7]: > 95% | reduction in liver parasite burden ([8]; 12.5 mg/kg bid or higher, 5-day dosing): > 95% | decrease in the liver parasite burden compared to control animals ([8]; 12.5 mg/kg bid): > 98% | decrease in the liver parasite burden compared to control animals ([8]; 25 mg/kg qd): > 98% | concentrations at which oxygen consumption was reduced [9]: ≥ 66 µM | margin of MitoExpress no-effect concentration over free concentration at predicted human therapeutic plasma Cmax [9]: approximately 57 fold | maximum reduction of oxygen consumption ([9]; 200 μM (highest tested)): 28%
